# Numbered stars: 1 amine (or outer) side, 2 acyl side, 3 side chain; on linkers, the order of the positions; unused ones are H or OH. Bridge positions count the residues as written; N and C are the ends. Square brackets hold non-standard residues; d marks the D form. Peptide text beside a SMILES is read from it. * marks the point of attachment. Abu(4-yl) = O=C([C@H](CC[*:3])N[*:1])[*:2]; Palmitoyl = CCCCCCCCCCCCCCCC(=O)*; NMeI = CC[C@H](C)[C@H](NC)C(=O)O; Dap = NC[C@H](N)C(=O)O
# Assays:
# [1] = biological target: T1, human adrenomedullin-receptor (Homo sapiens, UniProt O60895+Q16602); assay: Tests on a recombinant adrenomedullin-receptor reporter cell (CHO, aequorin luminescence); assay type: cell-based; conditions: Table 1, CHO cell line carrying the human adrenomedullin-receptor
# T1 construct: expressed in transfected cells; host or cells: CHO (Chinese hamster ovary) recombinant reporter cell line with aequorin
# T1 sequence (Q16602 23-461): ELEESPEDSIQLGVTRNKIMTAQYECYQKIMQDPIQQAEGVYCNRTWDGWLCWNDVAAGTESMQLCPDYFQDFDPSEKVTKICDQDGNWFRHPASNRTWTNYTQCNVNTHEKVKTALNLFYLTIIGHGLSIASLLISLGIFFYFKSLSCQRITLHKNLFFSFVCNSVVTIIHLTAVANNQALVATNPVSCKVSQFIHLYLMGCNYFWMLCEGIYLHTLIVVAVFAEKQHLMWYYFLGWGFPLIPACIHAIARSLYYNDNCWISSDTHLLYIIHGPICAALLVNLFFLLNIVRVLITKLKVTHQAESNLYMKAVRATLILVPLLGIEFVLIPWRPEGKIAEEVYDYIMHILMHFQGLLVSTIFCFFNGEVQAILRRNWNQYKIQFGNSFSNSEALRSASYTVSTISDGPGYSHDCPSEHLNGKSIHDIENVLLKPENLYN
# T1 sequence (O60895 43-175): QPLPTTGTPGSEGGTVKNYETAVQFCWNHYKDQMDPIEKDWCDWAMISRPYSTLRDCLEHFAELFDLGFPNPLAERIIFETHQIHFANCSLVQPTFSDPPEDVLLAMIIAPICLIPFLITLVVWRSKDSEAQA
# Protocol: Activation of the receptor by ligands was measured by aequorin luminescence. Construction of the cell line and measurement procedure has been described in detail [Wunder F., Rebmann A., Geerts A, and Kalthof B., Mol Pharmacol, 73, 1235-1243 (2008)]. In brief: Cells were seeded on opaque 384-well microtiter plates at a density of 4000 cells/well and were grown for 24 h. After removal of culture medium, cells were loaded for 3 h with 0.6 μg/ml coelenterazine in Ca^2+-free Tyrode solution (130 mM sodium chloride, 5 mM potassium chloride, 20 mM HEPES (4-(2-hydroxyethyl)-1-piperazineethanesulfonic acid), 1 mM magnesium chloride, and 4.8 mM sodium hydrogen carbonate, pH 7.4) supplemented with 0.2 mM 3-Isobutyl-1-methylxanthine (IBMX) in a cell culture incubator. Examples were added for 6 min in calcium^2+-free Tyrode solution containing 0.1% bovine serum albumin. Immediately before adding calcium^2+ to a final concentration of 3 mM measurement of the aequorin luminescence was started by use of a suitable luminometer. Luminescence was measured for 60 s. In a typical experiment compounds were tested in a concentration range of 1×10^−13 to 3×10^−6 M.
# [2] = biological target: T2, CLR fused to EYFP and RAMP2 fused to ECFP (Homo sapiens, UniProt O60895+Q16602); assay: cAMP assay (CRE luciferase reporter, HEK-293 cells transiently co-transfected with CLR and RAMP2); assay type: cell-based; conditions: Table 2, cAMP assay; HEK-293, CLR/RAMP2, CRE luciferase, 3 h stimulation, normalized to [G^14]ADM(14-52)
# T2 construct: EYFP; ECFP; expressed in transfected cells; host or cells: HEK-293 cells, transient co-transfection
# T2 sequence (Q16602 23-461): as the sequence (Q16602 23-461) above
# T2 sequence (O60895 43-175): as the sequence (O60895 43-175) above
# Outline: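 HEK-293 cells transiently co-transfected with CLR-EYFP, RAMP2-ECFP and a CRE-luc2P luciferase reporter were stimulated with ligands (eight concentrations, triplicate) for 3 h at 37 °C. Luminescence was corrected to 5 µM forskolin, normalized to [G^14]ADM(14-52) standard, and fitted by non-linear regression to dose-response curves.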
EC50 [1],EC50 [2],SMILES
0.032 µM,0.15 µM,"CCCCCCCCCCCCCCCC(=O)NCCCC[C@H](N)C(=O)NCC(=O)N[C@H]1CCC(=O)NCCCC[C@@H](C(=O)N[C@H](C(=O)N[C@H](C(=O)N[C@@H](CCC(N)=O)C(=O)N[C@@H](CCCCN)C(=O)N[C@@H](CC(C)C)C(=O)N[C@@H](C)C(=O)N[C@@H](Cc2c[nH]cn2)C(=O)N[C@@H](CCC(N)=O)C(=O)N[C@H](C(=O)N[C@@H](Cc2ccc(O)cc2)C(=O)N[C@@H](CCC(N)=O)C(=O)N[C@@H](Cc2ccccc2)C(=O)N[C@H](C(=O)N[C@@H](CC(=O)O)C(=O)N[C@@H](CCCCN)C(=O)N[C@@H](CC(=O)O)C(=O)N[C@@H](CCCCN)C(=O)N[C@@H](CC(=O)O)C(=O)N[C@@H](CC(N)=O)C(=O)N[C@H](C(=O)N[C@@H](C)C(=O)N2CCC[C@H]2C(=O)N[C@@H](CCCNC(=N)N)C(=O)N[C@@H](CO)C(=O)N[C@@H](CCCCN)C(=O)N(C)[C@H](C(=O)N[C@@H](CO)C(=O)N2CCC[C@H]2C(=O)N[C@@H](CCC(N)=O)C(=O)NCC(=O)N[C@@H](Cc2ccc(O)cc2)C(N)=O)[C@@H](C)CC)C(C)C)[C@@H](C)O)[C@@H](C)CC)C(C)C)[C@@H](C)O)NC(=O)[C@H]([C@@H](C)O)NC(=O)CNC(=O)[C@H](Cc2ccccc2)NC(=O)[C@H](CCCNC(=N)N)NC1=O [Example 14, ((2S,5S,11S,14S,23S)-23-(2-((S)-2-amino-6-palmitamidohexanamido)acetamido)-5-benzyl-2-(3-guanidinopropyl)-11-((R)-1-hydroxyethyl)-3,6,9,12,20,24-hexaoxo-1,4,7,10,13,19-hexaazacyclotetracosane-14-carbonyl)-L-threonyl-[N-Me-I^47]ADM(22-52)] (H-K(Palmitoyl)GERFGTKTVQKLAHQIYQFTDKDKDNVAPRSK[NMeI]SPQGY-NH2; lactam 3-8)"
> 1 µM,0.303 µM,"CC[C@H](C)[C@H](NC(=O)[C@H](CCC(N)=O)NC(=O)[C@H](Cc1c[nH]cn1)NC(=O)[C@H](C)NC(=O)[C@H](CC(C)C)NC(=O)[C@H](CCCCN)NC(=O)[C@H](CCC(N)=O)NC(=O)[C@@H](NC(=O)[C@@H](NC(=O)[C@@H]1CNC(=O)CC[C@H](NC(=O)CNC(=O)CN)C(=O)N[C@@H](CCCNC(=N)N)C(=O)N[C@@H](Cc2ccccc2)C(=O)NCC(=O)N[C@@H]([C@@H](C)O)C(=O)N1)[C@@H](C)O)C(C)C)C(=O)N[C@@H](Cc1ccc(O)cc1)C(=O)N[C@@H](CCC(N)=O)C(=O)N[C@@H](Cc1ccccc1)C(=O)N[C@H](C(=O)N[C@@H](CC(=O)O)C(=O)N[C@@H](CCCCN)C(=O)N[C@@H](CC(=O)O)C(=O)N[C@@H](CCCCN)C(=O)N[C@@H](CC(=O)O)C(=O)N[C@@H](CC(N)=O)C(=O)N[C@H](C(=O)N[C@@H](C)C(=O)N1CCC[C@H]1C(=O)N[C@@H](CCCNC(=N)N)C(=O)N[C@@H](CO)C(=O)N[C@@H](CCCCN)C(=O)N[C@H](C(=O)N[C@@H](CO)C(=O)N1CCC[C@H]1C(=O)N[C@@H](CCC(N)=O)C(=O)NCC(=O)N[C@@H](Cc1ccc(O)cc1)C(N)=O)[C@@H](C)CC)C(C)C)[C@@H](C)O [Example 6, ((3S,6S,12S,15S,18S)-18-(2-(2-aminoacetamido)acetamido)-12-benzyl-15-(3-guanidinopropyl)-6-((R)-1-hydroxyethyl)-5,8,11,14,17,21-hexaoxo-1,4,7,10,13,16-hexaazacyclohenicosane-3-carbonyl)-L-threonyl-ADM(22-52)] (H-GGERFGT[Dap]TVQKLAHQIYQFTDKDKDNVAPRSKISPQGY-NH2; lactam 3-8)"
0.032 µM,> 1 µM,"CC[C@H](C)[C@H](NC(=O)[C@H](CCC(N)=O)NC(=O)[C@H](Cc1c[nH]cn1)NC(=O)[C@H](C)NC(=O)[C@H](CC(C)C)NC(=O)[C@H](CCCCN)NC(=O)[C@H](CCC(N)=O)NC(=O)[C@@H](NC(=O)[C@@H](NC(=O)[C@@H]1CNC(=O)C[C@H](NC(=O)CNC(=O)CN)C(=O)N[C@@H](CCCNC(=N)N)C(=O)N[C@@H](Cc2ccccc2)C(=O)NCC(=O)N[C@@H]([C@@H](C)O)C(=O)N1)[C@@H](C)O)C(C)C)C(=O)N[C@@H](Cc1ccc(O)cc1)C(=O)N[C@@H](CCC(N)=O)C(=O)N[C@@H](Cc1ccccc1)C(=O)N[C@H](C(=O)N[C@@H](CC(=O)O)C(=O)N[C@@H](CCCCN)C(=O)N[C@@H](CC(=O)O)C(=O)N[C@@H](CCCCN)C(=O)N[C@@H](CC(=O)O)C(=O)N[C@@H](CC(N)=O)C(=O)N[C@H](C(=O)N[C@@H](C)C(=O)N1CCC[C@H]1C(=O)N[C@@H](CCCNC(=N)N)C(=O)N[C@@H](CO)C(=O)N[C@@H](CCCCN)C(=O)N[C@H](C(=O)N[C@@H](CO)C(=O)N1CCC[C@H]1C(=O)N[C@@H](CCC(N)=O)C(=O)NCC(=O)N[C@@H](Cc1ccc(O)cc1)C(N)=O)[C@@H](C)CC)C(C)C)[C@@H](C)O [Example 26, ((3S,6S,12S,15S,18S)-18-(2-(2-aminoacetamido)acetamido)-12-benzyl-15-(3-guanidinopropyl)-6-((R)-1-hydroxyethyl)-5,8,11,14,17,20-hexaoxo-1,4,7,10,13,16-hexaazacycloicosane-3-carbonyl)-L-threonyl-ADM(22-52)] (H-GGDRFGT[Dap]TVQKLAHQIYQFTDKDKDNVAPRSKISPQGY-NH2; lactam 3-8)"
–,0.0033 µM,"CC[C@H](C)[C@H](NC(=O)[C@H](CCC(N)=O)NC(=O)[C@H](Cc1c[nH]cn1)NC(=O)[C@H](C)NC(=O)[C@H](CC(C)C)NC(=O)[C@H](CCCCN)NC(=O)[C@H](CCC(N)=O)NC(=O)[C@@H](NC(=O)[C@@H](NC(=O)[C@@H]1CCSC[C@H](NC(=O)CNC(=O)CN)C(=O)N[C@@H](CCCNC(=N)N)C(=O)N[C@@H](Cc2ccccc2)C(=O)NCC(=O)N[C@@H]([C@@H](C)O)C(=O)N1)[C@@H](C)O)C(C)C)C(=O)N[C@@H](Cc1ccc(O)cc1)C(=O)N[C@@H](CCC(N)=O)C(=O)N[C@@H](Cc1ccccc1)C(=O)N[C@H](C(=O)N[C@@H](CC(=O)O)C(=O)N[C@@H](CCCCN)C(=O)N[C@@H](CC(=O)O)C(=O)N[C@@H](CCCCN)C(=O)N[C@@H](CC(=O)O)C(=O)N[C@@H](CC(N)=O)C(=O)N[C@H](C(=O)N[C@@H](C)C(=O)N1CCC[C@H]1C(=O)N[C@@H](CCCNC(=N)N)C(=O)N[C@@H](CO)C(=O)N[C@@H](CCCCN)C(=O)N[C@H](C(=O)N[C@@H](CO)C(=O)N1CCC[C@H]1C(=O)N[C@@H](CCC(N)=O)C(=O)NCC(=O)N[C@@H](Cc1ccc(O)cc1)C(N)=O)[C@@H](C)CC)C(C)C)[C@@H](C)O [Example 15, ((4S,7S,13S,16S,19R)-19-(2-(2-aminoacetamido)acetamido)-13-benzyl-16-(3-guanidinopropyl)-7-((R)-1-hydroxyethyl)-6,9,12,15,18-pentaoxo-1-thia-5,8,11,14,17-pentaazacycloicosane-4-carbonyl)-L-threonyl-ADM(22-52)] (H-GGCRFGT[Abu(4-yl)]TVQKLAHQIYQFTDKDKDNVAPRSKISPQGY-NH2; thioether 3-8)"
